# Measured values as given in patent US20260226071A1, “2, 4-DIANILINOPYRIMIDINE-BASED AURORA-A KINASE SELECTIVE DEGRADATION INDUCING COMPOUNDS” (UPPTHERA, INC., priority 2023, published 2026).
# Molecular target: T1, Aurora kinase A (AURKA) (Homo sapiens, UniProt O14965)
# T1 construct: endogenous in cells; host or cells: HeLa LgBit (AURKA-HiBit KI), CRISPR/Cas9 knock-in at the endogenous AURKA locus
# T1 sequence (O14965 1-403): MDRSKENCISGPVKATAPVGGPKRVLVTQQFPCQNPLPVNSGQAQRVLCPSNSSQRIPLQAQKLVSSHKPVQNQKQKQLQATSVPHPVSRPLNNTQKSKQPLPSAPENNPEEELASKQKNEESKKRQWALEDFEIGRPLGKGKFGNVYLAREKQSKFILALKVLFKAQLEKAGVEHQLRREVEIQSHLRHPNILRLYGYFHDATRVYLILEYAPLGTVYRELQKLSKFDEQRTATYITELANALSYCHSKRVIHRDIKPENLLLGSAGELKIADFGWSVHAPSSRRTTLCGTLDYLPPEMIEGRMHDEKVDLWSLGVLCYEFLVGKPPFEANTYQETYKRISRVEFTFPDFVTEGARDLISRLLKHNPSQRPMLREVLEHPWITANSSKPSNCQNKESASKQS
# Test: Luciferase assay for AURKA in HeLa LgBit (AURKA-HiBit KI) cell line
# Assay type: cell-based
# Details: HeLa LgBit (AURKA-HiBit KI) cells, measured after 12 hours
# Text: HeLa cell lines that stably express LgBit were constructed via LgBit vector transfection. Then, donor DNA and guide RNA for insertion of HiBit amino acid sequence at C-terminus of inherent Aurora kinase A (AURKA) genes were designed and constructed. Thereafter, they were transfected into the cell lines with CRISPR/Cas9 expression vector system. HiBit gene knock-in single cells were selected, passaged and used for the experiments.
# For cell culture, DMEM (Gibco, Cat. No. 11995-065; Lot. No. 2562497), FBS (Gibco, Cat. No. 16000-044; Lot. No. 2511328P), Penicillin/Streptomycin (PS) (Gibco, Cat. No. 15140-122; Lot. No. 2585636), 90 mm^2 cell culture dish (SPL, Cat. No. 20100), 96-well white plate, PBS pH 7.4 (Gibco, […]), TrypLE™ Express (Gibco, Cat. No. 12605-010; Lot. No. 2522525), counting chamber (hematocytometer) (Hirschmann, Cat. No. 8100204; Lot. No. 8021087) and 0.4% Trypan Blue solution (DYNEBIO, Cat. No. CBT3710; Lot. No. 20231017) were used. Cells were cultured in DMEM supplemented with 10% FBS and 1% PS and incubated in CO2 incubator (Thermo, Cat. No. 4111) at 37° C., 5% CO2 condition.
# HeLa LgBit (AURKA-HiBit KI) cell lines were cultured in 90 mm^2 cell culture dish, and 3×10^4 cells in […] of total medium volume were seeded and incubated for 18 hours in CO2 incubator. Then, Eudurazine (Promega, Cat. No. N247B; Lot. No. 495218) was added to each well to make up 1% of the total volume, followed by further incubation for 2 hours in CO2 incubator.
# The present compounds were fully dissolved in DMSO (Sigma-Aldrich Cat. No. D2438, Lot. No. RNBL7287) and 10 nM or 100 nM of total concentration were used in the experiment. After adding the compounds in each well of 96-well white plate, the plate was placed in the plate reader (BMG Labtech, CLARIOstar Plus) for real-time analysis. The wavelength for analysis was set to […], and the luminescence value was measured after 12 hours. The luminescence value was analyzed through an Excel program.
Structure (SMILES),luminescence value (Level) (10 nM compound),luminescence value (Level) (100 nM compound)
"O=C1CCC(c2ccc(N3CCN(CCN4CC[C@@H](NC(=O)c5ccc(Nc6ncc(F)c(Nc7ccc(C(=O)Nc8ccccc8Cl)cc7)n6)cc5)C4)CC3)cc2)C(=O)N1 (stereo partly drawn) [Compound 64, N-(2-chlorophenyl)-4-((2-((4-(((3R)-1-(2-(4-(4-(2,6-dioxopiperidin-3-yl)phenyl)piperazin-1-yl)ethyl)pyrrolidin-3-yl)carbamoyl)phenyl)amino)-5-fluoropyrimidin-4-yl)amino)benzamide]",B (B is 0.3 to 0.5),A (A is <0.2)
"O=C1CCC(c2ccc(N3CCN(CCN4CC[C@H](NC(=O)c5ccc(Nc6ncc(F)c(Nc7ccc(C(=O)Nc8ccccc8Cl)cc7)n6)cc5)C4)CC3)cc2)C(=O)N1 (stereo partly drawn) [Compound 68, N-(2-chlorophenyl)-4-((2-((4-(((3S)-1-(2-(4-(4-(2,6-dioxopiperidin-3-yl)phenyl)piperazin-1-yl)ethyl)pyrrolidin-3-yl)carbamoyl)phenyl)amino)-5-fluoropyrimidin-4-yl)amino)benzamide]",B (B is 0.3 to 0.5),A (A is <0.2)
"COc1cc(C(=O)NN2CCC(CCN3CCN(c4ccc(C5CCC(=O)NC5=O)cc4)CC3)CC2)ccc1Nc1ncc(F)c(Nc2ccc(C(=O)Nc3ccccc3Cl)cc2)n1 (stereo not shown) [Compound 84, 4-((4-((4-((2-chlorophenyl)carbamoyl)phenyl)amino)-5-fluoropyrimidin-2-yl)amino)-N-(4-(2-(4-(4-(2,6-dioxopiperidin-3-yl)phenyl)piperazin-1-yl)ethyl)piperidin-1-yl)-3-methoxybenzamide]",C (C is 0.5 to 0.7),B (B is 0.2 to 0.4)
"O=C1CC[C@H](NC(=O)c2ccc(N3CCN(CCC4CCN(NC(=O)c5ccc(Nc6ncc(F)c(Nc7ccc(C(=O)Nc8ccccc8Cl)cc7)n6)cc5)CC4)CC3)cn2)C(=O)N1 [Compound 87, (S)-5-(4-(2-(1-(4-((4-((4-((2-chlorophenyl)carbamoyl)phenyl)amino)-5-fluoropyrimidin-2-yl)amino)benzamido)piperidin-4-yl)ethyl)piperazin-1-yl)-N-(2,6-dioxopiperidin-3-yl)picolinamide]",B (B is 0.3 to 0.5),B (B is 0.2 to 0.4)
"O=C1CC[C@H](NC(=O)c2ccc(N3CCN(CCC4CCN(NC(=O)c5ccc(Nc6ncc(F)c(Nc7ccc(C(=O)Nc8ccccc8Cl)cc7)n6)cc5)CC4)CC3)cc2F)C(=O)N1 [Compound 89, (S)-4-(4-(2-(1-(4-((4-((4-((2-chlorophenyl)carbamoyl)phenyl)amino)-5-fluoropyrimidin-2-yl)amino)benzamido)piperidin-4-yl)ethyl)piperazin-1-yl)-N-(2,6-dioxopiperidin-3-yl)-2-fluorobenzamide]",B (B is 0.3 to 0.5),B (B is 0.2 to 0.4)
"O=C1CCC(c2ccc(N3CCN(CCC4CCN(NC(=O)c5ccc(Nc6ncc(F)c(Nc7ccc(C(=O)Nc8ccccc8Cl)cc7)n6)nc5)CC4)CC3)cc2)C(=O)N1 (stereo not shown) [Compound 91, 6-[[4-[4-[(2-chlorophenyl)carbamoyl]anilino]-5-fluoro-pyrimidin-2-yl]amino]-N-[4-[2-[4-[4-(2,6-dioxo-3-piperidyl)phenyl]piperazin-1-yl]ethyl]-1-piperidyl]pyridine-3-carboxamide]",D (D is 0.7 to 0.8),C (C is 0.4 to 0.6)
"O=C1CCC(c2ccc(N3CCN(CCC4CCN(NC(=O)c5ccc(Nc6ncc(F)c(Nc7ccc(C(=O)NC8CCCCC8)cc7)n6)cc5)CC4)CC3)cc2)C(=O)N1 (stereo not shown) [Compound 92, N-cyclohexyl-4-((2-((4-((4-(2-(4-(4-(2,6-dioxopiperidin-3-yl)phenyl)piperazin-1-yl)ethyl)piperidin-1-yl)carbamoyl)phenyl)amino)-5-fluoropyrimidin-4-yl)amino)benzamide]",B (B is 0.3 to 0.5),A (A is <0.2)

# Results, then the molecule that gave them:
luminescence value (Level) (10 nM compound),luminescence value (Level) (100 nM compound),Structure (SMILES)
B (B is 0.3 to 0.5),A (A is <0.2),"CN(C(=O)c1ccc(Nc2nc(Nc3ccc(C(=O)NN4CCC(CCN5CCN(c6ccc(C7CCC(=O)NC7=O)cc6)CC5)CC4)cc3)ncc2F)cc1)c1ccccc1Cl (stereo not shown) [Compound 102, 4-[[4-[4-[(2-chlorophenyl)-methyl-carbamoyl]anilino]-5-fluoro-pyrimidin-2-yl]amino]-N-[4-[2-[4-[4-(2,6-dioxo-3-piperidyl)phenyl]piperazin-1-yl]ethyl]-1-piperidyl]benzamide]"
B (B is 0.3 to 0.5),A (A is <0.2),"O=C1CCC(c2ccc(N3CCN(CCC4CCN(NC(=O)c5ccc(Nc6ncc(F)c(Nc7ccc(C(=O)Nc8ccccc8Cl)cc7)n6)cc5F)CC4)CC3)cc2)C(=O)N1 (stereo not shown) [Compound 105, 4-[[4-[4-[(2-chlorophenyl)carbamoyl]anilino]-5-fluoro-pyrimidin-2-yl]amino]-N-[4-[2-[4-[4-(2,6-dioxo-3-piperidyl)phenyl]piperazin-1-yl]ethyl]-1-piperidyl]-2-fluoro-benzamide]"
A (A is <0.3),A (A is <0.2),"Cn1nc(C2CCC(=O)NC2=O)c2cc(F)c(N3CCN(CCC4CCN(NC(=O)c5ccc(Nc6ncc(F)c(Nc7ccc(C(=O)Nc8ccccc8Cl)cc7)n6)cc5)CC4)CC3)cc21 (stereo not shown) [Compound 107, N-(2-chlorophenyl)-4-((2-((4-((4-(2-(4-(3-(2,6-dioxopiperidin-3-yl)-5-fluoro-1-methyl-1H-indazol-6-yl)piperazin-1-yl)ethyl)piperidin-1-yl)carbamoyl)phenyl)amino)-5-fluoropyrimidin-4-yl)amino)benzamide]"
C (C is 0.5 to 0.7),B (B is 0.2 to 0.4),"COc1cc(N2CCN(CCC3CCN(NC(=O)c4ccc(Nc5ncc(F)c(Nc6ccc(C(=O)Nc7ccccc7Cl)cc6)n5)cc4F)CC3)CC2)c(F)cc1C1CCC(=O)NC1=O (stereo not shown) [Compound 119, 4-((4-((4-((2-chlorophenyl)carbamoyl)phenyl)amino)-5-fluoropyrimidin-2-yl)amino)-N-(4-(2-(4-(4-(2,6-dioxopiperidin-3-yl)-2-fluoro-5-methoxyphenyl)piperazin-1-yl)ethyl)piperidin-1-yl)-2-fluorobenzamide]"
